From PubChem BioAssay (NCI)
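These data come from cells grown in 96-well plates and exposed to compound for 48 hours at five concentrations. TGI marks complete inhibition of growth.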

Experiments:
Test in all cases: NCI anticancer screen, dose series, 48 h
HL-60(TB) leukemia = test system: HL-60(TB) leukemia
RPMI-8226 leukemia = test system: RPMI-8226 leukemia
OVCAR-4 ovarian = test system: OVCAR-4 ovarian
NCI/ADR-RES ovarian = test system: NCI/ADR-RES ovarian
SK-OV-3 ovarian = test system: SK-OV-3 ovarian
HT29 colon = test system: HT29 colon
ACHN renal = test system: ACHN renal
CAKI-1 renal = test system: CAKI-1 renal
M14 melanoma = test system: M14 melanoma
CCRF-CEM leukemia = test system: CCRF-CEM leukemia
HCT-116 colon = test system: HCT-116 colon
U251 CNS = test system: U251 CNS
EKVX NSCLC = test system: EKVX NSCLC
HS 578T breast = test system: HS 578T breast
HOP-62 NSCLC = test system: HOP-62 NSCLC

Row | SMILES | TGI (HL-60(TB) leukemia) [µM] | TGI (RPMI-8226 leukemia) [µM] | TGI (OVCAR-4 ovarian) [µM] | TGI (NCI/ADR-RES ovarian) [µM] | TGI (SK-OV-3 ovarian) [µM] | TGI (HT29 colon) [µM] | TGI (ACHN renal) [µM] | TGI (CAKI-1 renal) [µM] | TGI (M14 melanoma) [µM] | TGI (CCRF-CEM leukemia) [µM] | TGI (HCT-116 colon) [µM] | TGI (U251 CNS) [µM] | TGI (EKVX NSCLC) [µM] | TGI (HS 578T breast) [µM] | TGI (HOP-62 NSCLC) [µM]
1 | c1ccc2c(c1)NC1(N3CCCCC3)CCCCC21 (centres undefined) | 82.2 | > 100 | > 100 | > 100 | > 100 | > 100 | > 100 | > 100 | > 100 | > 100 | > 100 | > 100 | > 100 | > 100 | > 100
2 | O=C(C/C(=N/O)c1cc(-c2ccccc2)no1)c1ccccc1 | 74.6 | > 100 | 65.8 | 69.1 | 38.4 | > 100 | > 100 | > 100 | > 100 | > 100 | 60 | 60.5 | > 100 | 66.6 | 40.2
3 | CCOC1Oc2ccccc2-c2nc(SC)ncc21 (centres undefined) | > 100 | > 100 | > 100 | > 100 | > 100 | > 100 | > 100 | > 100 | > 100 | > 100 | > 100 | > 100 | > 100 | > 100 | 
4 | Cn1c(=O)sc2cc(C(=S)N3CCC(Cc4ccccc4)CC3)ccc21 | > 100 | > 100 |  | > 100 | > 100 | > 100 | > 100 | > 100 | > 100 | > 100 | > 100 | 78.1 | > 100 | > 100 | > 100
5 | CN1CCC2(CC1)C(=NC1CCCCC1)NC(=S)N2c1ccccc1 | > 100 | > 100 | > 100 | > 100 | > 100 | > 100 | > 100 |  | > 100 | > 100 | > 100 | > 100 | > 100 | 88.3 | > 100
6 | O=C(O)CC(Sc1ccccc1)c1ccccc1 (centres undefined) | > 100 | > 100 | > 100 | > 100 | > 100 | > 100 | > 100 | > 100 | > 100 |  | > 100 | > 100 | > 100 | > 100 | > 100
7 | CC(=O)C1=C(C)N(c2ccc(C)cc2)C2(O)C3=C(C(=O)c4ccccc4C3=O)C(O)=CC12Cl (centres undefined) | > 100 | > 100 | > 100 | 28.3 | > 100 | 60.1 | > 100 | 87.1 | > 100 |  | > 100 | > 100 | > 100 | > 100 | > 100
8 | CC(=O)OC12c3ccccc3-c3ccccc3C1C1C(=O)OC(=O)C12 (centres undefined) | > 10 | > 10 | > 10 | > 10 | > 10 | > 10 | > 10 | > 10 | > 10 | > 10 |  | > 10 | > 10 | > 10 | > 10
